System: MV-4-11 cells
Assay: Gene expression microarray analysis (Affymetrix PrimeView) and GSEA
Format: cell-based, human
Parameters: RFU PODN (11730768_x_at) / Fold change /veh PODN (11730768_x_at) / RFU LINC00158 (11744669_a_at) / Fold change /veh LINC00158 (11744669_a_at) / RFU DUSP10 (11751237_a_at) / Fold change /veh DUSP10 (11751237_a_at) / RFU ID3 (11757404_x_at) / Fold change /veh ID3 (11757404_x_at) / RFU PLEKHG5 (11737974_s_at) / Fold change /veh PLEKHG5 (11737974_s_at) / RFU LRRC4B (11730491_at) / Fold change /veh LRRC4B (11730491_at) / RFU GIMAP4 (11747438_a_at) / Fold change /veh GIMAP4 (11747438_a_at) / RFU KRT8 (11758183_x_at) / Fold change /veh KRT8 (11758183_x_at) / RFU CNN1 (11734310_a_at) / Fold change /veh CNN1 (11734310_a_at) / RFU VPS37D (11726825_at) / Fold change /veh VPS37D (11726825_at) / RFU C10orf10 (11716522_x_at) / Fold change /veh C10orf10 (11716522_x_at) / RFU KIR2DL2 /// KIR2DL4 /// KIR2DL5A /// KIR2DL5B /// KIR2DS1 /// KIR2DS2 /// KIR2DS3 /// KIR2DS4 /// KIR3DL3 /// KIR3DL3 /// KIR3DS1 (11738374_at) / Fold change /veh KIR2DL2 /// KIR2DL4 /// KIR2DL5A /// KIR2DL5B /// KIR2DS1 /// KIR2DS2 /// KIR2DS3 /// KIR2DS4 /// KIR3DL3 /// KIR3DL3 /// KIR3DS1 (11738374_at) / RFU C1QL1 (11718748_at) / Fold change /veh C1QL1 (11718748_at) / RFU TMPRSS4 (11747572_a_at) / Fold change /veh TMPRSS4 (11747572_a_at) / RFU HAMP (11756126_x_at) / Fold change /veh HAMP (11756126_x_at) / RFU RNFT2 (11725882_a_at) / Fold change /veh RNFT2 (11725882_a_at) / RFU NR4A2 (11747474_a_at) / Fold change /veh NR4A2 (11747474_a_at) / RFU ABCC12 (11746883_a_at) / Fold change /veh ABCC12 (11746883_a_at) / RFU TMEM136 (11760407_x_at) / Fold change /veh TMEM136 (11760407_x_at) / RFU CLDN22 /// WWC2 (11732394_at) / Fold change /veh CLDN22 /// WWC2 (11732394_at) / RFU HLA-DPB1 (11760878_x_at) / Fold change /veh HLA-DPB1 (11760878_x_at) / RFU SPINT1 (11716480_a_at) / Fold change /veh SPINT1 (11716480_a_at) / RFU GAP43 (11754022_s_at) / Fold change /veh GAP43 (11754022_s_at) / RFU A4GNT (11735810_at) / Fold change /veh A4GNT (11735810_at) / RFU PRB3 (11715151_x_at) / Fold change /veh PRB3 (11715151_x_at) / RFU TUBB4B (11761932_at) / Fold change /veh TUBB4B (11761932_at) / RFU CAPN14 (11732068_a_at) / Fold change /veh CAPN14 (11732068_a_at) / RFU TMCC2 (11721928_a_at) / Fold change /veh TMCC2 (11721928_a_at) / RFU IRGQ (11745062_a_at) / Fold change /veh IRGQ (11745062_a_at) / RFU FAM174B (11720279_a_at) / Fold change /veh FAM174B (11720279_a_at) / RFU TMPRSS4 (11748680_a_at) / Fold change /veh TMPRSS4 (11748680_a_at) / RFU FAM212B (11763350_a_at) / Fold change /veh FAM212B (11763350_a_at) / RFU PLEKHG5 (11743358_a_at) / Fold change /veh PLEKHG5 (11743358_a_at) / RFU ZSCAN30 (11745921_a_at) / Fold change /veh ZSCAN30 (11745921_a_at) / RFU CMKLR1 (11741424_a_at) / Fold change /veh CMKLR1 (11741424_a_at) / RFU LOC101060620 /// MAPK8IP1 (11723275_at) / Fold change /veh LOC101060620 /// MAPK8IP1 (11723275_at) / RFU SPTSSB (11747773_x_at) / Fold change /veh SPTSSB (11747773_x_at) / RFU PRSS12 (11739890_at) / Fold change /veh PRSS12 (11739890_at) / RFU BIN1 (11741810_x_at) / Fold change /veh BIN1 (11741810_x_at) / RFU WNT11 (11732464_a_at) / Fold change /veh WNT11 (11732464_a_at) / RFU C10orf10 (11716521_a_at) / Fold change /veh C10orf10 (11716521_a_at) / RFU C5orf56 (11738089_at) / Fold change /veh C5orf56 (11738089_at) / RFU CYB561 (11721691_x_at) / Fold change /veh CYB561 (11721691_x_at) / RFU ANKRD19P (11752326_a_at) / Fold change /veh ANKRD19P (11752326_a_at) / RFU OR2T12 /// OR2T33 /// OR2T8 (11738714_s_at) / Fold change /veh OR2T12 /// OR2T33 /// OR2T8 (11738714_s_at) / RFU VCAN (11748164_a_at) / Fold change /veh VCAN (11748164_a_at) / RFU JSRP1 (11732532_at) / Fold change /veh JSRP1 (11732532_at) / RFU KRTAP10-11 (11738290_x_at) / Fold change /veh KRTAP10-11 (11738290_x_at) / RFU MYO3A (11730013_a_at) / Fold change /veh MYO3A (11730013_a_at) / RFU EBF3 (11725865_a_at) / Fold change /veh EBF3 (11725865_a_at) / RFU CAMK2N1 (11719241_x_at) / Fold change /veh CAMK2N1 (11719241_x_at) / RFU C5orf56 (11738088_a_at) / Fold change /veh C5orf56 (11738088_a_at) / RFU OLFML3 (11715873_a_at) / Fold change /veh OLFML3 (11715873_a_at) / RFU LOC100653217 /// NTM (11731650_a_at) / Fold change /veh LOC100653217 /// NTM (11731650_a_at) / RFU MAPK11 (11762145_a_at) / Fold change /veh MAPK11 (11762145_a_at) / RFU FIZ1 (11724087_x_at) / Fold change /veh FIZ1 (11724087_x_at) / RFU OASL (11726364_x_at) / Fold change /veh OASL (11726364_x_at) / RFU SOX15 (11748057_x_at) / Fold change /veh SOX15 (11748057_x_at) / RFU CD79A (11719716_a_at) / Fold change /veh CD79A (11719716_a_at) / RFU HIST1H1D (11736915_at) / Fold change /veh HIST1H1D (11736915_at) / RFU CASKIN2 (11723855_a_at) / Fold change /veh CASKIN2 (11723855_a_at) / RFU LOC730098 (11760151_x_at) / Fold change /veh LOC730098 (11760151_x_at) / RFU OR4N2 (11742367_at) / Fold change /veh OR4N2 (11742367_at) / RFU PRRT2 (11749266_a_at) / Fold change /veh PRRT2 (11749266_a_at) / RFU SNX32 (11753110_a_at) / Fold change /veh SNX32 (11753110_a_at) / RFU CDHR5 (11726645_a_at) / Fold change /veh CDHR5 (11726645_a_at) / RFU RCAN1 (11760418_a_at) / Fold change /veh RCAN1 (11760418_a_at) / RFU FAM167A (11723789_a_at) / Fold change /veh FAM167A (11723789_a_at) / RFU FAM26E (11764081_at) / Fold change /veh FAM26E (11764081_at) / RFU ISYNA1 (11749810_s_at) / Fold change /veh ISYNA1 (11749810_s_at) / RFU ACY1 (11761880_at) / Fold change /veh ACY1 (11761880_at) / RFU 11764098_at / Fold change /veh 11764098_at / RFU SAMD14 (11745864_x_at) / Fold change /veh SAMD14 (11745864_x_at) / RFU NPB (11741838_a_at) / Fold change /veh NPB (11741838_a_at) / RFU TMPRSS6 (11731388_a_at) / Fold change /veh TMPRSS6 (11731388_a_at) / RFU KRTAP10-2 (11738614_at) / Fold change /veh KRTAP10-2 (11738614_at) / RFU ARHGAP8 /// PRR5-ARHGAP8 (11727945_x_at) / Fold change /veh ARHGAP8 /// PRR5-ARHGAP8 (11727945_x_at) / RFU KRTAP5-7 /// NADSYN1 (11734609_at) / Fold change /veh KRTAP5-7 /// NADSYN1 (11734609_at) / RFU RASL12 (11751679_a_at) / Fold change /veh RASL12 (11751679_a_at) / RFU CDKN2B (11736163_a_at) / Fold change /veh CDKN2B (11736163_a_at) / RFU PRF1 (11729649_at) / Fold change /veh PRF1 (11729649_at) / RFU, ZNF638 /// ZNF638-IT1 / Fold change vs veh, ZNF638 /// ZNF638-IT1 / RFU, PANK3 / Fold change vs veh, PANK3 / RFU, SH3YL1 / Fold change vs veh, SH3YL1 / RFU, ZEB2 / Fold change vs veh, ZEB2 / RFU, NRIP1 / Fold change vs veh, NRIP1 / RFU, PTTG1IP / Fold change vs veh, PTTG1IP / RFU, CAPN2 / Fold change vs veh, CAPN2 / RFU, MED14 / Fold change vs veh, MED14 / RFU, SNORA58 / Fold change vs veh, SNORA58 / RFU, C1orf63 / Fold change vs veh, C1orf63 / RFU, LRRFIP1 / Fold change vs veh, LRRFIP1 / RFU, NDUFAF7 / Fold change vs veh, NDUFAF7 / RFU, SLC12A2 / Fold change vs veh, SLC12A2 / RFU, IBTK / Fold change vs veh, IBTK / RFU, ESF1 / Fold change vs veh, ESF1 / Fold change vs veh, TMEM50B / RFU, TAOK1 / Fold change vs veh, TAOK1 / RFU, ACBD3 / Fold change vs veh, ACBD3 / RFU, TMA16 / Fold change vs veh, TMA16 / RFU, RWDD3 / Fold change vs veh, RWDD3 / RFU, BCAT1 / Fold change vs veh, BCAT1 / RFU, EDEM3 / Fold change vs veh, EDEM3 / RFU, TMEM33 / Fold change vs veh, TMEM33 / RFU, WDR75 / Fold change vs veh, WDR75 / RFU, AHCTF1 / Fold change vs veh, AHCTF1 / RFU, TFRC / Fold change vs veh, TFRC / RFU, ZDHHC17 / Fold change vs veh, ZDHHC17 / RFU, NOM1 / Fold change vs veh, NOM1 / RFU, ARL8B / Fold change vs veh, ARL8B / RFU, ZBTB11 / Fold change vs veh, ZBTB11 / RFU, TAMM41 / Fold change vs veh, TAMM41 / RFU, KIAA1704 /// LOC100996395 / Fold change vs veh, KIAA1704 /// LOC100996395 / RFU, ING1 / Fold change vs veh, ING1 / RFU, TRMT61B / Fold change vs veh, TRMT61B / RFU, FUBP3 / Fold change vs veh, FUBP3 / RFU, TP53 / Fold change vs veh, TP53 / RFU, TNKS2 / Fold change vs veh, TNKS2 / RFU, ZFP14 / Fold change vs veh, ZFP14 / RFU, ACTR2 / Fold change vs veh, ACTR2 / RFU, PPP3R1 / Fold change vs veh, PPP3R1 / RFU, PIK3R1 / Fold change vs veh, PIK3R1 / RFU, HNRNPA1 / Fold change vs veh, HNRNPA1 / RFU, RNF170 / Fold change vs veh, RNF170 / RFU, ZNF28 / Fold change vs veh, ZNF28 / RFU, RNGTT / Fold change vs veh, RNGTT / RFU, OGT / Fold change vs veh, OGT / RFU, BRD1 / Fold change vs veh, BRD1 / RFU, MARS / Fold change vs veh, MARS / RFU, ZNF655 / Fold change vs veh, ZNF655 / RFU, FAHD1 / Fold change vs veh, FAHD1 / RFU, BDP1 / Fold change vs veh, BDP1 / RFU, LRRCC1 / Fold change vs veh, LRRCC1 / RFU, ARID1A / Fold change vs veh, ARID1A / RFU, ZNF146 / Fold change vs veh, ZNF146 / RFU, ZNF330 / Fold change vs veh, ZNF330 / RFU, GPN3 / Fold change vs veh, GPN3 / RFU, C9orf123 / Fold change vs veh, C9orf123 / RFU, N4BP2L2 / Fold change vs veh, N4BP2L2 / RFU, ARFIP1 / Fold change vs veh, ARFIP1 / RFU, FAM179B / Fold change vs veh, FAM179B / RFU, BCL10 / Fold change vs veh, BCL10 / RFU, UHRF1BP1L / Fold change vs veh, UHRF1BP1L / RFU, BET1 / Fold change vs veh, BET1 / RFU, CNOT2 / Fold change vs veh, CNOT2 / RFU, ZNF268 / Fold change vs veh, ZNF268 / Fold change vs veh, ZNF507 / RFU, DGCR2 / Fold change vs veh, DGCR2 / RFU, WDSUB1 / Fold change vs veh, WDSUB1 / Fold change vs veh, HSP90B1 /// MIR3652 / RFU, ADSS / Fold change vs veh, ADSS / RFU, GK / Fold change vs veh, GK / RFU, ZNF148 / Fold change vs veh, ZNF148 / RFU, TAF9 / Fold change vs veh, TAF9 / RFU, SLC1A5 / Fold change vs veh, SLC1A5 / RFU, SLMO2 / Fold change vs veh, SLMO2 / RFU, ABCC4 / Fold change vs veh, ABCC4 / RFU, LOC101060439 /// RAP1B / Fold change vs veh, LOC101060439 /// RAP1B / RFU, RFX7 / Fold change vs veh, RFX7 / RFU, GTPBP10 / Fold change vs veh, GTPBP10 / RFU, CNEP1R1 / Fold change vs veh, CNEP1R1 / RFU, BIVM-ERCC5 /// ERCC5 / Fold change vs veh, BIVM-ERCC5 /// ERCC5 / RFU, ILF3 / Fold change vs veh, ILF3 / RFU 11762660_at / Fold change /veh 11762660_at / RFU VCAN (11757783_s_at) / Fold change /veh VCAN (11757783_s_at) / RFU DDX43 (11728927_at) / Fold change /veh DDX43 (11728927_at) / RFU KRT8 (11758188_x_at) / Fold change /veh KRT8 (11758188_x_at) / RFU NKD1 (11759106_at) / Fold change /veh NKD1 (11759106_at) / RFU SRD5A1 (11742802_a_at) / Fold change /veh SRD5A1 (11742802_a_at) / RFU TPSAB1 /// TPSB2 (11721975_s_at) / Fold change /veh TPSAB1 /// TPSB2 (11721975_s_at) / RFU GSTM3 (11746129_a_at) / Fold change /veh GSTM3 (11746129_a_at) / RFU IL23R (11737362_x_at) / Fold change /veh IL23R (11737362_x_at) / RFU TMEM51 (11727254_a_at) / Fold change /veh TMEM51 (11727254_a_at) / RFU PIWIL2 (11732686_x_at) / Fold change /veh PIWIL2 (11732686_x_at) / RFU ORM1 (11744905_x_at) / Fold change /veh ORM1 (11744905_x_at) / RFU CCDC152 (11743942_at) / Fold change /veh CCDC152 (11743942_at) / RFU ECM1 (11717891_a_at) / Fold change /veh ECM1 (11717891_a_at) / RFU IL23R (11748794_a_at) / Fold change /veh IL23R (11748794_a_at) / RFU TNFAIP8L3 (11732012_x_at) / Fold change /veh TNFAIP8L3 (11732012_x_at) / RFU MBOAT4 (11741988_at) / Fold change /veh MBOAT4 (11741988_at) / RFU 11764193_at / Fold change /veh 11764193_at / RFU TMEM53 (11763286_at) / Fold change /veh TMEM53 (11763286_at) / RFU MAGEB2 (11727129_at) / Fold change /veh MAGEB2 (11727129_at) / RFU TMEM200A (11744735_a_at) / Fold change /veh TMEM200A (11744735_a_at) / RFU CCDC152 (11751479_a_at) / Fold change /veh CCDC152 (11751479_a_at) / RFU FAM211A (11726209_a_at) / Fold change /veh FAM211A (11726209_a_at) / RFU RGS16 (11746705_a_at) / Fold change /veh RGS16 (11746705_a_at) / RFU VCAN (11755009_s_at) / Fold change /veh VCAN (11755009_s_at) / RFU RHOB (11743442_s_at) / Fold change /veh RHOB (11743442_s_at) / RFU RGS16 (11720943_a_at) / Fold change /veh RGS16 (11720943_a_at) / RFU RGS16 (11720944_at) / Fold change /veh RGS16 (11720944_at) / RFU, VPS4B / Fold change vs veh, VPS4B / RFU, CREB1 / Fold change vs veh, CREB1 / RFU, DNAJC13 / Fold change vs veh, DNAJC13 / RFU, GNAQ / Fold change vs veh, GNAQ / RFU, CDK5R1 / Fold change vs veh, CDK5R1 / RFU, ZRANB3 / Fold change vs veh, ZRANB3 / RFU, CUL4A / Fold change vs veh, CUL4A / RFU, CCNY / Fold change vs veh, CCNY / RFU, UFL1 / Fold change vs veh, UFL1 / RFU, COG3 / Fold change vs veh, COG3 / RFU, DIAPH2 / Fold change vs veh, DIAPH2 / RFU, SKA2 / Fold change vs veh, SKA2 / RFU, AFF3 / Fold change vs veh, AFF3 / RFU, LMF1 / Fold change vs veh, LMF1 / RFU, IPO11 / Fold change vs veh, IPO11 / RFU, DFFB / Fold change vs veh, DFFB / RFU, FOXP1 / Fold change vs veh, FOXP1 / RFU, CARD8 / Fold change vs veh, CARD8 / RFU, STRN3 / Fold change vs veh, STRN3 / RFU, ADK / Fold change vs veh, ADK / RFU, RASSF2 / Fold change vs veh, RASSF2 / RFU, WIPF1 / Fold change vs veh, WIPF1 / RFU, LARP1B / Fold change vs veh, LARP1B / RFU, RASA1 / Fold change vs veh, RASA1 / RFU, RB1 / Fold change vs veh, RB1 / RFU, PPFIA1 / Fold change vs veh, PPFIA1 / RFU, MAT2A / Fold change vs veh, MAT2A / RFU, CCT5 / Fold change vs veh, CCT5 / RFU, WDR92 / Fold change vs veh, WDR92 / RFU, CUX1 / Fold change vs veh, CUX1 / RFU, TTC7A / Fold change vs veh, TTC7A / RFU, TMEM135 / Fold change vs veh, TMEM135 / RFU, DEPTOR / Fold change vs veh, DEPTOR / RFU, CPM / Fold change vs veh, CPM / RFU, DNAJB6 / Fold change vs veh, DNAJB6 / RFU, CACNA2D3 / Fold change vs veh, CACNA2D3 / RFU, DTX4 / Fold change vs veh, DTX4 / RFU, TFCP2 / Fold change vs veh, TFCP2 / RFU, GMCL1 /// GMCL1P1 / Fold change vs veh, GMCL1 /// GMCL1P1 / RFU, AEBP2 / Fold change vs veh, AEBP2 / RFU, SNHG1 /// SNORD22 /// SNORD25 /// SNORD26 /// SNORD27 /// SNORD28 /// SNORD29 /// SNORD31 / Fold change vs veh, SNHG1 /// SNORD22 /// SNORD25 /// SNORD26 /// SNORD27 /// SNORD28 /// SNORD29 /// SNORD31 / Fold change (Aza/veh), C12orf56 (ProbeSet 11735607_a_at) / Fold change (ACY-1035/veh), C12orf56 (ProbeSet 11735607_a_at) / Fold change (Aza/veh), FGFR1OP (ProbeSet 11751329_s_at) / Fold change (ACY-1035/veh), FGFR1OP (ProbeSet 11751329_s_at) / Fold change (Aza/veh), VPS36 (ProbeSet 11739960_a_at) / Fold change (ACY-1035/veh), VPS36 (ProbeSet 11739960_a_at) / RFU SYPL1 (11715823_x_at) / Fold change /veh SYPL1 (11715823_x_at) / RFU IGFBP7 (11715501_s_at) / Fold change /veh IGFBP7 (11715501_s_at) / RFU REEP3 (11722064_at) / Fold change /veh REEP3 (11722064_at) / RFU IGLL1 (11728026_x_at) / Fold change /veh IGLL1 (11728026_x_at): dose or concentration left out as unconfirmed
Conditions: ProbeSet 11720269_a_at; LIST B

In the case of `Nc1ccc(-c2cccs2)cc1NC(=O)c1ccc2c(c1)cc(C1CC1)n2CCN1CCOCC1` [ACY-1035], the “RFU, IBTK” value is reported as 758.00 RFU.

From paper PMC5218480 (PLoS ONE, 2017)
